Several values for one entry are separate records, joined by “and”; a condition that tells them apart may be missing. Equal entries are not always repeated.
Tests used:
[1] = test system: cellular components in the CP microenvironment; assay: Cellular selectivity of phage clones: one-way ANOVA and Tukey-Kramer comparison of MCC of all cell markers; type: in vivo, mouse
Text: (§1) Immunofluorescence (IF). Post ex vivo imaging, mouse pancreata were submerged in Neg-50 Frozen Section Medium (Thermo Scientific, Waltham, Massachusetts, United States of America) and snap-frozen over liquid nitrogen vapor. The embedded tissues were cut into 5 μm sections using a cryostat (Leica Microsystems Inc., Buffalo Grove, Illinois, United States of America) for subsequent imaging with ZEISS LSM-880 Confocal Laser Scanning Microscope (Carl Zeiss Meditec, Inc., Jena, Germany) at the Advanced Microscopy Facility at the University of Virginia. Cell types of interest in the pancreatitis microenvironment were identified by immunohistochemistry using the following antibodies: rat anti-mouse CD31 at 1:200 dilution (endothelial markers; BD Biosciences, San Jose, California, United States of America), rat anti-mouse CD206 at 1:1000 dilution (M2 macrophage markers; Bio-Rad, Hercules, California, United States of America), rabbit anti-mouse cytokeratin 7 at 1:3000 dilution (CK-7, epithelial markers; Abcam, Cambridge, Massachusetts, United States of America), rabbit anti-mouse collagen IIIa at 1:200 dilution (ECM markers; Abcam, Cambridge, Massachusetts, United States of America), goat anti-mouse carboxypeptidase A1 at 1:200 dilution (CPA1, acini markers; R&D Systems, Inc., Minneapolis, Minnesota, United States of America), rat anti-mouse F4/80 at 1:500 (macrophage markers; Bio-Rad, Hercules, California, United States of America), and FITC-conjugated, mouse anti-mouse α-SMA at 1:200 dilution (MilliporeSigma, St. Louis, Missouri, United States of America). ALEXA FLUOR® 488 (Abcam, Cambridge, Massachusetts, United States of America) antibodies from appropriate species, including donkey anti-goat, donkey anti-rat, donkey anti-rabbit at 1:500 dilution, were used as secondary antibodies to locate the primary antibodies. IF-stained pancreatic sections were mounted with PROLONG™ Gold Antifade Mountant with DAPI (Thermo Fisher Scientific Inc, Waltham, Massachusetts, United States of America, United States of America) for nucleus visualization. IF images were taken on Ziess LSM 880 Confocal Microscope (ZIESS, Oberkochen, Germany) at the Advanced Microscopy Facility at the University of Virginia.
Statistical analysis. Statistical analysis of the data was performed by student t-test, one-way analysis of variance (ANOVA), and Tukey-Kramer test. All data presented are expressed as mean+standard error of at least three independent measurements. For all comparisons, p-values<0.05 were considered significant.
(§2) To identify the cell types that the CP targeting clones were binding, immunofluorescent analysis was performed on common cellular components in the CP microenvironment in the inflamed pancreas sections following in vivo validation of individual clones (FIG. 7). Mander's correlation coefficient (MCC) analysis was performed to determine colocalization of the targeting phage to the cell markers.

[2] = test system: αSMA+ cells (activated PSC); assay: Immunofluorescence colocalization (MCC) of VT680-labeled phage with cell marker in CP pancreas; type: in vivo, mouse; details: CP pancreas sections
Text: as §1, §2

[3] = test system: CPA-1+ cells (acinar cells); assay: as above; type: in vivo, mouse; details: CP pancreas sections
Text: as §1, §2

CD31 (endothelium) = assay: as above; type: in vivo, mouse; details: CP pancreas sections
Text: as §1, §2

CK7 (epithelium) = assay: as above; type: in vivo, mouse; details: CP pancreas sections
Text: as §1, §2

[4] = test system: collagen IIIa+ cells (ECM); assay: as above; type: in vivo, mouse; details: Col IIIa; CP pancreas sections
Text: as §1, §2

[5] = test system: F4/80+ cells (macrophages); assay: as above; type: in vivo, mouse; details: CP pancreas sections
Text: as §1, §2

[6] = test system: caerulein-induced CP mice (inflamed pancreas) versus healthy mice; assay: In vivo validation of individual phage clones: ex vivo IVIS fluorescence of organs after co-injection of targeting phage (VT680) and wild type M13Ke phage (VT750); parameters: species or system mouse (C57BL/6J); details: for CP-to-Healthy Ratio (fold change of specificity ratio): Pancreas; for specificity for CP over healthy pancreas: individual clones from Groups 2 and 3
Method: C57BL/6 J mice (6-12 week-old, female) were used for the in vivo phage screening. For chronic pancreatitis, caerulein (Bachem, Torrance, California, United States of America) was dissolved in sterile saline and administrated to mice twice a day, 8 hours apart for 14 consecutive days, at a concentration of 250 μg/kg body weight via intraperitoneal injection (Halbrook et al., 2017), as shown in FIG. 1A. During the 14-day course, intraperitoneal injections of 100 μg/kg buprenorphine were given every 3 days to minimize the induced pain. For healthy controls, c57BL/6 J mice were injected intraperitoneally with an equal volume of sterile saline following the same schedule as in the chronic pancreatitis models. […] Picrosirius red (Polysciences, Inc., Warrington, Pennsylvania, United States of America) was used to visualize collagen in paraffin-embedded pancreas sections (FIG. 1B).
Specificity of phage clones. After PHASTpep analysis and candidate clone selections, 18 candidate clones were grouped (4-5 clones per group, 4 groups total) based on sequence similarity using GibbsCluster Server 2.0 (Andreatta et al., 2017). by the Technical University of Denmark (FIG. 2). […] For each group, the fluorescently labeled candidate and WT phage were mixed and co-injected in CP and healthy mice (n=5) Phage accumulation was determined by measuring the ex vivo fluorescent intensity of the pancreas at 20 hours post-injection using the Fluorescent Molecular Tomography (FMT, PerkinElmer, Waltham, Massachusetts, United States of America) using the excitation and emission wavelength at 675 nm/720 nm for VT680 and 745 nm/800 nm for VT750. To account for variations of fluorescent labeling efficiency, the raw readouts of VT680 and VT750 were normalized to the dye-per-phage ratio (see Table 3 below).
The specificity ratio was calculated as % ID/g of the normalized VT680 divided by the % ID/g of the normalized VT750 (see Equation (1)). Quantifications are included in Table 4.
A similar procedure was applied to determine the specificity of individual phage clones in Groups 2 and 3. Candidate clones were labeled with VivioTag 680 (VT680, PerkinElmer, Waltham, MA) to match the detectable wavelength of the IVIS Spectrum Series (Perkin Elmer, Waltham, Massachusetts, United States of America). Fluorescent intensity was measured at 20 hours post-injection of candidate phage (VT680) and WT phage (VT750). Fold change of specificity ratio was calculated as the specificity ratio of CP mice divided by the specificity ratio of the healthy mouse (see Table 5).

collagen IIIa (mouse) = collagen IIIa (mouse) (UniProt P08121); assay: IF colocalization (JACoP) of VT680 phage with marker, CP mouse pancreas sections
Chain of UniProt P08121 (P08121 155-1219): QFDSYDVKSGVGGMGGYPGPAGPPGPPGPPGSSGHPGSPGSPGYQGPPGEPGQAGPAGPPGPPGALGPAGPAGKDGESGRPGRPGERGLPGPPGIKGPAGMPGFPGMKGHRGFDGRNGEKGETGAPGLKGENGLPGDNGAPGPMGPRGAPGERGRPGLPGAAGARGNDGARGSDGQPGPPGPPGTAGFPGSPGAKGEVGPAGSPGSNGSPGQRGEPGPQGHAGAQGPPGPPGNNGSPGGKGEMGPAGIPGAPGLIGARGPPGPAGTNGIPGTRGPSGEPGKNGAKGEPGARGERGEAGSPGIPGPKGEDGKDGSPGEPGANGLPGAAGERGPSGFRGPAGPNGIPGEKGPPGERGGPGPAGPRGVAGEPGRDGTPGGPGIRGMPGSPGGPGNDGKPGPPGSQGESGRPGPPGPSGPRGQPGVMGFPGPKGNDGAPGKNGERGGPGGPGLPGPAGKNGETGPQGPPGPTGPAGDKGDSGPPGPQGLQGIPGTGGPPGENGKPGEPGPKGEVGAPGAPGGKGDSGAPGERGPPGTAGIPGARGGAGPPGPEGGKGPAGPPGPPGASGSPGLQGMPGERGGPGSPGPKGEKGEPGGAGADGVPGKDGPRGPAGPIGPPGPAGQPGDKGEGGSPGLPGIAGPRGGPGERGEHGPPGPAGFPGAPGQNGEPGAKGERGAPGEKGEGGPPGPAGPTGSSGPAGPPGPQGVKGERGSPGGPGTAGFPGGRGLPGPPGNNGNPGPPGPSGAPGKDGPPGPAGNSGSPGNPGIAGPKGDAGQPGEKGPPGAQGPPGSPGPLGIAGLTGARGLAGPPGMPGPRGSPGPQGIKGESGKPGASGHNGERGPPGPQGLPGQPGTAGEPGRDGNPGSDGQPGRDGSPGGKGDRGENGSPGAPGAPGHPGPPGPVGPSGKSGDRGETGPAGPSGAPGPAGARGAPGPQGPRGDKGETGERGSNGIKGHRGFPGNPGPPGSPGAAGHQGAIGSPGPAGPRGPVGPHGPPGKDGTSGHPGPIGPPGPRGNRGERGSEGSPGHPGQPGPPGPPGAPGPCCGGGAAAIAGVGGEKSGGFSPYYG

F4/80 (mouse) = F4/80 (mouse) (UniProt Q61549); assay: as above
Chain of UniProt Q61549 (Q61549 28-931): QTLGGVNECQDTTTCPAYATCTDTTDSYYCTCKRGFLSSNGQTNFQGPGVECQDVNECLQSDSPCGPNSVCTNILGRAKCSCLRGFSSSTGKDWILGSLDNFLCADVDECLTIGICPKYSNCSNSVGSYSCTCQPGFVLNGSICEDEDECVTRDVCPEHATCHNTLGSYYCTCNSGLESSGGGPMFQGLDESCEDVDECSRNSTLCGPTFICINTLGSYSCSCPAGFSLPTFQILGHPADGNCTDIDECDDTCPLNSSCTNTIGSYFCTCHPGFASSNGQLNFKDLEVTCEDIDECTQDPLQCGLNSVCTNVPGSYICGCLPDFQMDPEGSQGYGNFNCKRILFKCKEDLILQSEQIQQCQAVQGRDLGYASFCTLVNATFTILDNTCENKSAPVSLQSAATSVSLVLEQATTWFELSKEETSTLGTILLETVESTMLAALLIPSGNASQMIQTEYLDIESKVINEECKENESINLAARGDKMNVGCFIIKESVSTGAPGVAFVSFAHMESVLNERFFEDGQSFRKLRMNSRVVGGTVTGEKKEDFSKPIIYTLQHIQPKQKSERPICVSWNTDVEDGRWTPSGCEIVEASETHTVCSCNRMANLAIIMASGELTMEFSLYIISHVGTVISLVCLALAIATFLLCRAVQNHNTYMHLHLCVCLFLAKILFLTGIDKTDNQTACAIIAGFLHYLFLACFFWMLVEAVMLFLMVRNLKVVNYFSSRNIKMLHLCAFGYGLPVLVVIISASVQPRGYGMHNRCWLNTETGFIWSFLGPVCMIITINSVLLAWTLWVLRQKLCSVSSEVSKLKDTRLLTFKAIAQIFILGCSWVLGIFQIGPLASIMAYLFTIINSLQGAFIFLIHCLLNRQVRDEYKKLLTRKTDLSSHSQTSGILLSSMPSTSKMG

[7] = molecular target: carboxypeptidase A1 (CPA1) (mouse) (UniProt Q7TPZ8); assay: as above
Chain of UniProt Q7TPZ8 (Q7TPZ8 111-419): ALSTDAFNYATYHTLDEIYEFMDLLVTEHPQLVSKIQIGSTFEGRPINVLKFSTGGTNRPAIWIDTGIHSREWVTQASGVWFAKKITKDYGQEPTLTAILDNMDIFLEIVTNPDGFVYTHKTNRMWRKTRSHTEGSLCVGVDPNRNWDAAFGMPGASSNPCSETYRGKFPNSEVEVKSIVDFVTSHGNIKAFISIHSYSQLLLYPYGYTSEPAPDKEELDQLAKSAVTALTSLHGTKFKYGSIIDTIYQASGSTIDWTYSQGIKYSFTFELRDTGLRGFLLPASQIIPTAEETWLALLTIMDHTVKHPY

[8] = molecular target: cytokeratin 7 (CK-7) (mouse) (UniProt Q9DCV7); assay: as above
Chain of UniProt Q9DCV7 (Q9DCV7 2-457): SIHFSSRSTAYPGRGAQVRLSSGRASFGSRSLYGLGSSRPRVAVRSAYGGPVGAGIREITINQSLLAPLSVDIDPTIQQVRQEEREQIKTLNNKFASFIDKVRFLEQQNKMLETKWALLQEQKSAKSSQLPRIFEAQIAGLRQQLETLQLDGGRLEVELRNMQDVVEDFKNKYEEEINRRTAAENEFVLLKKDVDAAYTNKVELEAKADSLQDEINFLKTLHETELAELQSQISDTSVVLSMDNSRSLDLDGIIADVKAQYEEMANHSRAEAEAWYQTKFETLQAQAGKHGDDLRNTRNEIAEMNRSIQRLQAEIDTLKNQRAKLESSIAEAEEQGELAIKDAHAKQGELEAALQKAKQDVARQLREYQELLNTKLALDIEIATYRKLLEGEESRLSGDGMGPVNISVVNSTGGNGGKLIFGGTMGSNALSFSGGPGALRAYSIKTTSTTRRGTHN

CD31 (mouse) = CD31 (mouse) (UniProt Q08481); assay: as above
Chain of UniProt Q08481 (Q08481 18-727): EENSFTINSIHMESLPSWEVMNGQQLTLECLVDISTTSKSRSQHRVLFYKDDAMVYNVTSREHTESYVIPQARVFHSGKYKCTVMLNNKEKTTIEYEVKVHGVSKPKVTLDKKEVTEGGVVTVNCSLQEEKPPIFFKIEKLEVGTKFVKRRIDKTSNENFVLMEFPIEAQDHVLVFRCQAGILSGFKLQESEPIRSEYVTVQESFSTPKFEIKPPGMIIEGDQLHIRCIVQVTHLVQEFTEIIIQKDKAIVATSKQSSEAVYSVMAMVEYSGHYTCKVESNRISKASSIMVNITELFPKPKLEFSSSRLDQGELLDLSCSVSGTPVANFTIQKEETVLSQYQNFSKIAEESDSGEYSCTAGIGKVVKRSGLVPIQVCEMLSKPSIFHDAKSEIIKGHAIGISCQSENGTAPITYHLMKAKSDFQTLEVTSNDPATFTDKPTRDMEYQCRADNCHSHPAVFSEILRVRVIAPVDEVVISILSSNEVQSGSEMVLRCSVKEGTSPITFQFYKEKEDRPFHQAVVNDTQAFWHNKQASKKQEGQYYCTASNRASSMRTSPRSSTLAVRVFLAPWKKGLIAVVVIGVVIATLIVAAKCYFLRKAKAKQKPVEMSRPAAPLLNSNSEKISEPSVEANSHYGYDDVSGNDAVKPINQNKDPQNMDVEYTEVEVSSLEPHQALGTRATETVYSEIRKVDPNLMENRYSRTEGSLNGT

[9] = statistically significant selectivity for a single cellular component in CP

| Substance | Cell type the phage clone shows specificity to ([1]; CP microenvironment) | Corresponding Cellular Components [1, 9] | Mean Manders' Correlation Coefficient (MCC), fraction of phage overlapping cell marker [2] | Mean Manders' Correlation Coefficient (MCC), fraction of phage overlapping cell marker [3] | Mean Manders' Correlation Coefficient (MCC), fraction of phage overlapping cell marker (CD31 (endothelium)) | Mean Manders' Correlation Coefficient (MCC), fraction of phage overlapping cell marker (CK7 (epithelium)) | Mean Manders' Correlation Coefficient (MCC), fraction of phage overlapping cell marker [4] | Mean Manders' Correlation Coefficient (MCC), fraction of phage overlapping cell marker [5] | Radiant efficiency Targeting:M13Ke ([6]; CP mouse, liver) | Radiant efficiency Targeting:M13Ke ([6]; CP mouse, pancreas) | Radiant efficiency Targeting:M13Ke ([6]; CP mouse, spleen) | CP-to-Healthy Ratio ([6]; Liver) | CP-to-Healthy Ratio (fold change of specificity ratio) [6] | CP-to-Healthy Ratio ([6]; Spleen) | Radiant efficiency Targeting:M13Ke ([6]; healthy mouse, liver) | Radiant efficiency Targeting:M13Ke ([6]; healthy mouse, pancreas) | Radiant efficiency Targeting:M13Ke ([6]; healthy mouse, spleen) | specificity for CP over healthy pancreas [6] | mean Manders' correlation coefficient (MCC), fraction of phage overlapping cell marker (collagen IIIa (mouse)) | mean Manders' correlation coefficient (MCC), fraction of phage overlapping cell marker (F4/80 (mouse)) | further results |
| --- | --- | --- | --- | --- | --- | --- | --- | --- | --- | --- | --- | --- | --- | --- | --- | --- | --- | --- | --- | --- | --- |
| MNSIAIP (displayed on phage) | Acinar cells | Acinar cells | 0.07 | 0.633±0.179 and 0.63 | 0.24 | 0.05 | 0.34 | 0.37 | 0.61 | 9.81 | 3.61 | 1.144 | 1.945 | 0.829 | 0.53 | 5.04 | 4.36 | increased specificity for CP over healthy pancreas |  |  | Marker the phage clone shows specificity to ([1]; CP microenvironment): CPA1^+; Colocalized Markers (p < 0.05) [1, 9]: CPA-1 |
| SLPLGPM (SEQ ID NO: 26) phage clone (peptide) |  |  |  |  |  |  |  |  |  |  |  |  |  |  |  |  |  |  | 0.23 | 0.49 | mean Manders' correlation coefficient (MCC), fraction of phage overlapping cell marker [7]: 0.35; mean Manders' correlation coefficient (MCC), fraction of phage overlapping cell marker [8]: 0.06; mean Manders' correlation coefficient (MCC), fraction of phage overlapping cell marker (CD31 (mouse)): 0.25 |
| SLTNSSF (displayed on phage) | Macrophage | Macrophage | 0.06 | 0.22 | 0.13 | 0.11 | 0.33 | 0.804±0.090 and 0.80 | 1.33 | 8.86 | 2.65 | 1.248 | 5.469 | 0.985 | 1.06 | 1.62 | 2.69 | increased specificity for CP over healthy pancreas |  |  |  |
| SNSQDLH (SEQ ID NO: 28) phage clone (peptide) |  |  |  |  |  |  |  |  |  |  |  |  |  |  |  |  |  |  | 0.33 | 0.8 | mean Manders' correlation coefficient (MCC), fraction of phage overlapping cell marker [7]: 0.23; mean Manders' correlation coefficient (MCC), fraction of phage overlapping cell marker [8]: 0.14; mean Manders' correlation coefficient (MCC), fraction of phage overlapping cell marker (CD31 (mouse)): 0.12 |
| SNSQDLH (displayed on phage) | Macrophage | Macrophage | 0.05 | 0.23 | 0.12 | 0.14 | 0.33 | 0.800±0.197 and 0.80 | 0.73 | 6.22 | 3.27 | 1.428 | 3.009 | 0.165 | 0.51 | 2.07 | 3.11 | increased specificity for CP over healthy pancreas |  |  |  |

Reference: patent US20240115729A1, “COMPOSITIONS AND METHODS FOR TARGETED ANTIFIBROTIC THERAPY IN CHRONIC PANCREATITIS” (University of Virginia Patent Foundation, priority 2021, published 2024)
